Test results: patent US11279726B2, “Norbornene-based amphipathic compound and utilization thereof” (Industry-University Cooperation Foundation Hanyang …, priority 2017, dated 2022)

Tests used:
[1] = Critical micelle concentration by fluorescent staining with diphenylhexatriene (DPH); format: physicochemical; settings: aqueous solution
Method: A method for measuring CMC is not particularly limited, and a method widely known in the art may be used, for example, by fluorescence staining with diphenylhexatriene (DPH).
(§1) To identify the characteristics of NBMs synthesized in Preparation Example 1 to 6 according to the synthetic method of Example 1, molecular weights (MWs) of NBMs, critical micelle concentrations (CMCs) and hydrodynamic radii (Rh) of the micelles were measured.
(§2) Specifically, the critical micelle concentrations (CMCs) were measured by fluorescent staining with diphenylhexatriene (DPH), and the hydrodynamic radii (Rh) of the micelle formed with individual agents (1.0 wt %) were measured by dynamic light scattering (DLS).

[2] = Hydrodynamic radius / size distribution of micelles by dynamic light scattering (DLS); format: physicochemical; settings: 1.0 wt % agent
Method: A method for measuring the radius of a micelle is not particularly limited, and a method well known in the art may be used, and for example, the radius thereof may be measured using a dynamic light scattering (DLS) experiment.
as §1, §2

[3] = target: T1, uric acid-xanthine/H+ symporter (UapA) (Emericella nidulans, UniProt Q07307, G411V); assay: UapA extraction and thermal stability by fluorescence size exclusion chromatography (FSEC); set-up: species or system Aspergillus nidulans; settings: 1.0 wt % amphiphile, 10 minutes at 40° C.; compared with DDM
T1 construct: made in house; host or cells: Saccharomyces cerevisiae FGY217
Method: An experiment for measuring the structural stability of uric acid-xanthine/H+ symporter (UapA) isolated from Aspergillus nidulans using NBMs was performed. The structural stability of UapA was evaluated using […].
Specifically, UapAG411VΔ1-11 (hereinafter, referred to as “UapA”) was expressed as GFP fusion in Saccharomyces cerevisiae FGY217 strain and isolated in a sample buffer (20 mM Tris (pH 7.5), 150 mM NaCl, 0.03% DDM, 0.6 mM xanthine) according to the method described in the literature written by J. Leung et al. (Mol. Membr. Biol. 2013, 30, 32-42). Membranes containing UapA were resuspended in PBS, 10 mM imidazole pH 8.0, 150 mM NaCl, 10% glycerol, and the protein concentration was measured. The membranes were adjusted to a concentration of 1 mg·ml^−1 and 1 ml aliquots were individually incubated with DDM or NBMs at a final amphiphilic material concentration of 1.0 wt % for 10 minutes at 40° C. 100 μl aliquots were removed from each tube, and a fluorescence reading was taken for each sample before and after ultracentrifugation at 150,000 g for 10 minutes to remove insoluble material. The remaining soluble fraction for each condition was submitted to fluorescent size exclusion chromatography (FSEC) using a Superose 6 column (GE Healthcare) equilibrated with DDM.

[4] = target: T2, Salmonella typhimurium melibiose permease (MelBSt) (Salmonella typhimurium, UniProt P30878); assay: MelBSt extraction and thermostability (SDS-PAGE / western blotting); settings: 1.5 wt %
T2 construct: made in house; host or cells: E. coli DW2 (ΔmelB, ΔlacZY)
Method: An experiment of measuring structural stability of MelBSt (Salmonella typhimurium melibiose permease) protein with NBMs was carried out. The MelBSt protein was extracted from the membrane using NBMs or DDM, and the amounts and structure of the extracted proteins were analyzed by SDS-PAGE and western blotting. The concentration of the used amphiphilic compound was 1.5 wt %. The proteins were extracted at four temperatures (0, 45, 55, and 65° C.) and incubated at the same temperature for 90 minutes, and the amounts of the remaining proteins solubilized in an aqueous solution were measured, so as to simultaneously evaluate both performances of the compound such as protein extraction efficiency and stabilization activity. The amounts of the proteins extracted and stabilized by respective amphiphilic molecules were represented as relative values (%) to the amounts of total proteins contained in the membrane sample not treated with an amphiphilic molecule.
Specifically, Salmonella typhimurium melibiose permease (MelBSt) with a C-terminal 10-His tag was expressed in E. coli DW2 cells (^ΔmelB and ^ΔlacZY) using plasmid pK95^ΔAHB/WT MelBSt/CH10. Cell growth and membrane preparation were carried out according to the method described in the literature written by A. S. Ethayathulla et al. (Nat. Commun. 2014, 5, 3009). Protein assays were carried out with a Micro BCA kit (Thermo Scientific, Rockford, Ill.). The measurement of MelBSt stability was carried out on NBMs or DDM according to the protocol described by P. S. Chae et al. (Nat. Methods 2010, 7, 1003-1008). Membrane samples containing MelBSt (final protein concentration was 10 mg/mL) were incubated with a solubilization buffer (20 mM sodium phosphate, pH 7.5, 200 mM NaCl, 10% glycerol, 20 mM melibiose) and 1.5% (w/v) of DDM or NBMs (X-NBM-C10, D-NBM-C10, X-NBM-C11 or D-NBM-C11) at four different temperatures (0, 45, 55, 65° C.) for 90 minutes. To remove insoluble materials, following ultracentrifugation at 355,590 g using a Beckman Optimal™ MAX ultracentrifuge with TLA-100 rotor for 45 minutes at 4° C. was performed, and 20 μg of each protein sample was separated by SDS-16% PAGE, and then immunoblotted with a Penta-His-HRP antibody (Qiagen, Germantown, Md.). MelBSt was detected using SuperSignal West Pico chemiluminescent substrate by an ImageQuant LAS 4000 Biomolecular Imager (GE Health Care Life Science).

[5] = target: T3, human β2 adrenergic receptor (β2AR) (Homo sapiens, UniProt P07550); assay: β2AR stability: [3H]-DHA ligand binding activity of solubilized receptor
T3 construct: made in house
Method: An experiment of measuring the stability of human β2 adrenergic receptor (β2AR) and G-protein-coupled receptor (GPCR) for NBMs was carried out. That is, the receptor was extracted from the cell membranes by DDM and purified in the same amphiphilic compound. The DDM-purified receptor was diluted in individual DDM- or NBM-containing buffers to adjust the final compound concentration to be CMC+0.2 wt %. The receptor stability was assessed by measuring ligand binding activity using [3H]-DHA.
To measure long-term stability of human β2AR with NBMs (D-NBM-C11 and X-NBM-C11) showing an excellent ligand binding activity of the receptor in the previous experiment, a radio-labeled ligand binding experiment was performed by the following method. β2AR was purified using 0.1% DDM (D. M. Rosenbaum et al., Science, 2007, 318, 1266-1273), and finally concentrated to approximately 10 mg/ml (approximately 200 μM). A main binding mixture containing 10 nM [^3H]-DHA supplemented with 0.5 mg/ml BSA was prepared in 0.2% amphiphilic compound (DDM or NBMs (D-NBM-C11 and X-NBM-C11)) using β2AR purified with DDM. The receptor purified with DDM or NBMs was incubated with 10 nM [^3H]-DHA at room temperature for 30 minutes. The mixture was loaded onto a G-50 column, the fractions were collected in a 1 ml binding buffer (20 mM HEPES pH 7.5, 100 mM NaCl, containing 0.5 mg/ml BSA and 20× CMC individual amphiphilic compounds). In addition, each fraction was supplemented with a 15 ml scintillation fluid, and receptor-bound [^3H]-DHA was measured using a scintillation counter (Beckman) at regular intervals for 3 days. The binding capacity of [^3H]-DHA was shown as a bar chart (FIG. 11a).
In addition, β2AR was extracted from the membrane using 1.0 wt % of DDM or X-NBM-C11 and purified at 0.2 wt % for the same individual amphiphilic compounds. Structural stability of the receptor was assessed by ligand binding activity, which was measured with sample aliquots at regular intervals during 7-day incubation at room temperature. Each experiment was carried out in triplicate (FIG. 12b).

β2AR-Gs complex = β2AR-Gs complex (Homo sapiens, UniProt P07550); assay: Negative stain EM analysis of β2AR-Gs complex
Method: A β2AR-Gs protein complex was prepared for electron microscopy using the conventional negative staining protocol, and imaged at room temperature with a Tecnai T12 electron microscope operated at 120 kV using low-dose procedures. Images were recorded at a magnification of 71,138× and a defocus value of approximately 1.4μ using a Gatan US4000 CCD camera. All images were binned (2×2 pixels) to obtain a pixel size of 4.16 A at the specimen level. Particles were manually excised using e2boxer (part of the EMAN2 software suite). 2D reference-free alignment and classification of particle projections were performed using ISAC. 14,556 projections of β2AR-Gs were subjected to ISAC, producing 199 classes consistent over two-way matching and accounting for 10,100 particle projections.

Structure (SMILES) | CMC [1] | CMC (wt %) [1] | Rh (nm), hydrodynamic radius of micelles [2] | Retention of monodispersed UapA-GFP peak after heating (FSEC) [3] | MelBSt membrane protein stabilization activity (overall) ([4]; elevated temperature) | Long-term ligand binding activity of β2AR ([3H]-DHA) ([5]; 0.2% amphiphile, room temperature, 3 days (7 days for receptor extracted with the amphiphile)) | Initial ligand binding activity of β2AR ([3H]-DHA) ([5]; DDM-purified receptor diluted to CMC+0.2 wt % amphiphile) | Particle dispersity of β2AR-Gs complex in negative stain EM (β2AR-Gs complex) | MelBSt protein extraction (solubilization) efficiency ([4]; 0° C. and 45° C., 90 minutes) | MelBSt protein extraction efficiency ([4]; 0° C., 90 minutes) | Amount of solubilized MelBSt protein ([4]; 65° C., 90 minutes)
CCCCCCCCCCOCC1C2CC([C@@H]1COCCCCCCCCCC)[C@H](O[C@@H]1OC(CO)[C@@H](O[C@H]3OC(CO)[C@@H](O)C(O)C3O)C(O)C1O)C2O[C@@H]1OC(CO)[C@@H](O[C@H]2OC(CO)[C@@H](O)C(O)C2O)C(O)C1O (stereo partly drawn) [D-NBM-C10] | ~0.008 mM | ~0.0009 wt % | 3.5 ± 0.03 nm | slightly lower effect than DDM | excellent membrane protein stabilization activity | – | – | – | – | – | –
CCCCCCCCCCCCO[C@@H]1O[C@H](CO)[C@@H](O[C@H]2O[C@H](CO)[C@@H](O)[C@H](O)[C@H]2O)[C@H](O)[C@H]1O [DDM, n-dodecyl-β-D-maltopyranoside, reference compound] | ~0.17 mM | ~0.0087 wt % | 3.4 ± 0.03 nm | single monodispersed peak with relatively high intensity | – | rapidly decreased over time | excellent initial ligand binding activity | aggregated particles | high MelBSt protein extraction efficiency | higher protein extraction efficiency than NBMs | no MelBSt protein solubilized in an aqueous solution was detectable
CCCCCCCCCCC(CCCCCCCCCC)(CO[C@@H]1O[C@H](CO)[C@@H](O[C@H]2O[C@H](CO)[C@@H](O)[C@H](O)[C@H]2O)[C@H](O)[C@H]1O)CO[C@@H]1O[C@H](CO)[C@@H](O[C@H]2O[C@H](CO)[C@@H](O)[C@H](O)[C@H]2O)[C@H](O)[C@H]1O [MNG-3, reference compound] | – | – | – | ineffective in preventing protein denaturation/aggregation | – | – | – | – | – | – | –
CCCCCCCCCOCC1C2CC([C@H]1COCCCCCCCCC)[C@H](O[C@@H]1OC(CO)[C@@H](O[C@H]3OC(CO)[C@@H](O)C(O)C3O)C(O)C1O)C2O[C@@H]1OC(CO)[C@@H](O[C@H]2OC(CO)[C@@H](O)C(O)C2O)C(O)C1O (stereo partly shown) [X-NBM-C9] | ~0.010 mM | ~0.0011 wt % | 3.7 ± 0.03 nm | more or less comparable to DDM | – | – | – | – | – | – | –
CCCCCCCCCCOCC1C2CC([C@H]1COCCCCCCCCCC)[C@H](O[C@@H]1OC(CO)[C@@H](O[C@H]3OC(CO)[C@@H](O)C(O)C3O)C(O)C1O)C2O[C@@H]1OC(CO)[C@@H](O[C@H]2OC(CO)[C@@H](O)C(O)C2O)C(O)C1O (stereo partly shown) [X-NBM-C10] | ~0.007 mM | ~0.0008 wt % | 4.0 ± 0.02 nm | more or less comparable to DDM | – | – | – | – | – | – | –
CCCCCCCCCOCC1C2CC([C@@H]1COCCCCCCCCC)[C@H](O[C@@H]1OC(CO)[C@@H](O[C@H]3OC(CO)[C@@H](O)C(O)C3O)C(O)C1O)C2O[C@@H]1OC(CO)[C@@H](O[C@H]2OC(CO)[C@@H](O)C(O)C2O)C(O)C1O (stereo partly drawn) [D-NBM-C9] | ~0.012 mM | ~0.0013 wt % | 3.3 ± 0.04 nm | low recovery of monodispersed protein peak | – | – | – | – | – | – | –
